Data: patent publication US5582832A, “Compositions for topical application to skin” (priority 1995, dated 1996)

Tests used:
Assay type in all cases: cell-based, human
keratinocytes = assay: Rate of DNA synthesis (3H-thymidine incorporation) in keratinocytes; details: for keratinocyte DNA synthesis, % of the corresponding controls (1 uM Econazole) / keratinocyte DNA synthesis, % of the corresponding controls (10 uM Econazole) / keratinocyte DNA synthesis, % of the corresponding controls (no azole): Table 5; for keratinocyte DNA synthesis, % of the corresponding controls (1 uM Econazole): 1 uM ceramide + 1 uM Econazole; for keratinocyte DNA synthesis, % of the corresponding controls (10 uM Econazole): 1 uM ceramide + 10 uM Econazole; for keratinocyte DNA synthesis, % of the corresponding controls (10 uM Econazole) / keratinocyte DNA synthesis, % of the corresponding controls (no azole) / DNA synthesis, % of control (100 nM 1,25D + 5 uM ceramide Formula A): * = synergistic effect; for keratinocyte DNA synthesis, % of the corresponding controls (no azole): 1 uM ceramide; for DNA synthesis, % of control (100 nM 1,25D + 5 uM ceramide Formula A): 10 uM azole (or no azole) + 100 nM 1,25D + 5 uM ceramide Formula A
Protocol: (§1) 1. Normal human keratinocytes isolated from neonatal foreskins by trypsin treatment were grown in DME medium/10% fetal calf serum in the presence of irradiated 3T3 mouse fibroblasts for establishing dividing keratinocyte colonies. Keratinocytes were grown under the above condition until their third passage.
2. For the experiments, third passage keratinocytes were plated into a serum-free keratinocyte growth medium (KSFM; obtained from Life Technologies, Grand Island, N.Y.) containing 0.09 mM calcium. 20,000 to 30,000 cells were plated into each well of 24 well cell culture plates and grown for 5 days, until the cells reach about 80% confluence.
3. Medium was changed to fresh medium and the various test materials were added to the medium from an ethanolic stock solution (10:00 AM). The final ethanol concentration in the cultures was kept below 0.2%. Control cultures received no tested material but were dosed with 0.2% ethanol. Each compound or combination was tested in three separate wells. By 4:00 PM, 1 uCi of ^3 H-thymidine (Amersham Corp., Sp activity 40 Ci/mmol) was added to the 1 ml medium in each well. The cells were incubated overnight and […] (10:00 AM next day) the amount of ^3 -thymidine associated with the cellular DNA of keratinocytes was assessed as described below.
4. The medium was aspirated, and the wells washed with 1 ml phosphate-buffered saline. The DNA and proteins of the cells in the plate were then precipitated by adding 1 ml of ice-cold 10% trichloroacetic acid (TCA). The plates were left on ice for 30 minutes to complete the precipitation process. TCA was then aspirated and each well was then washed four times with 5% TCA. The plates were then dried on a filter pad and the cells in the wells were dissolved in 0.5 ml of 0.1N sodium hydroxide. The sodium hydroxide was then neutralized using 0.1N hydrochloric acid and the solution (1 ml total volume) was then transferred to a scintillation vial. 50 μl samples from each vial were used for protein assay using BCA protein assay reagent obtained from Pierce Chemical Company. 8 ml of a scintillation fluid (Ecolume) was added to the rest of the solution in the vial, and the vials were counted in a scintillation counter to determine the amount of radioactivity in each vial. The DNA synthesis rate was then calculated as cpm ^3 H thymidine incorporated into total cellular DNA/microgram of cell protein for each individual well. Mean and standard deviation for each group was also calculated.
Rationale for using 1,25D is that in in vivo situation, these azoles will inhibit the endogenous degradation of the 1,25D which is obtained from the circulation. Azoles will act in keratinocytes to increase the endogenous levels of 1,25D within cells. Keratinocytes (70% confluent) were incubated with 10 uM of the different azoles in the presence of 100 nM 1,25D. One of the groups was treated with 5 uM of ceramide of Formula A in the medium. After four hours, all the wells were treated with 1 uCi ^3 H-thymidine and the rate of DNA synthesis was estimated as described in the methods.
Keratinocytes were incubated with 1 or 10 uM of Econazole in the presence of 1 uM of the different ceramide analogues and 100 nM 1,25D in the medium. Thymidine incorporation was measured with an overnight incubation as described in Example 2.

[1] = tested on: 25D degradation (vitamin D metabolism in keratinocytes); assay: Vitamin D metabolism in keratinocytes: 25D degradation; details: for % degradation (25D): Table 1; for 25D (% degradation): Table 3, 10 uM
Protocol: as §1
(§2) 80% confluent keratinocytes were incubated with 0.05 uCi of ^3 H-25D or ^3 H-1,25D for two hours or 20 hours in the presence of 1-100 uM of the different compounds. Reaction was stopped by addition of methanol and the cells and medium were extracted using chloroform:methanol. The chloroform layer was separated, dried and spotted on TLC plates. […] The amount of radioactivity in each lane was quantitated using the BioScan radioactive plate reader. The amount of radioactivity remaining in the peak area of 25D and 1,25D were calculated as % of control. The % remaining was subtracted from 100 to get the % degradation of the metabolites.
(§3) The data are expressed as mean of % degradation of 25D or 1,25D. The range is also given in parenthesis.

[2] = tested on: 1,25D degradation (vitamin D metabolism in keratinocytes); assay: Vitamin D metabolism in keratinocytes: 1,25D degradation; details: for % degradation (1,25D): Table 1; for 1,25D (% degradation): Table 3, 10 uM
Protocol: as §1, §2, §3

[3] = Tables 5A-5I, 100 nM 1,25D, Econazole 10 uM, ceramide analogue 1 uM
[4] = Tables 5A-5I, 100 nM 1,25D, Econazole 10 uM, ceramide analogue 1 uM, mean + SD
[5] = Table 2, 1 uM, 20 hour incubation, mean of duplicate (range)
[6] = Tables 4A-4F, 100 nM 1,25D, azole 10 uM, ceramide Formula A 5 uM, mean + SD

Structure (SMILES): CCCCCCCCCCCCCCC(O)CN(CCO)C(C)=O (stereo not drawn) [Formula C]
- keratinocyte DNA synthesis, % of the corresponding controls (1 uM Econazole) (keratinocytes; 100 nM 1,25D): 78.0 + 15.1%
- keratinocyte DNA synthesis, % of the corresponding controls (10 uM Econazole) (keratinocytes; 100 nM 1,25D): 47.2 + 33.6%
- keratinocyte DNA synthesis, % of the corresponding controls (no azole) (keratinocytes; 100 nM 1,25D): 77.7 ± 7.4%
- DNA synthesis (% control) (keratinocytes; [3]): 77.7 % control
- DNA synthesis (keratinocytes; [4]): 23288 + 2737 cpm 3H thymidine incorporated

Structure (SMILES): CCCCCCCCCCCCCCCCN(CC(O)CO)C(=O)CCCCC (stereo not drawn) [Formula G]
- keratinocyte DNA synthesis, % of the corresponding controls (1 uM Econazole) (keratinocytes; 100 nM 1,25D): 84.8 + 12.7%
- keratinocyte DNA synthesis, % of the corresponding controls (10 uM Econazole) (keratinocytes; 100 nM 1,25D): 28.2 + 15.2%
- keratinocyte DNA synthesis, % of the corresponding controls (no azole) (keratinocytes; 100 nM 1,25D): 102.8 ± 14.4%
- DNA synthesis (% control) (keratinocytes; [3]): 102.8 % control
- DNA synthesis (keratinocytes; [4]): 30794 + 5311 cpm 3H thymidine incorporated

Structure (SMILES): CCCCCCCCCCCCCCCCOCC(O)CN(CCO)C(C)=O (stereo not drawn) [Formula E]
- keratinocyte DNA synthesis, % of the corresponding controls (1 uM Econazole) (keratinocytes; 100 nM 1,25D): 99.8 + 19.1%
- keratinocyte DNA synthesis, % of the corresponding controls (10 uM Econazole) (keratinocytes; 100 nM 1,25D): 20.5 + 12.9%
- keratinocyte DNA synthesis, % of the corresponding controls (no azole) (keratinocytes; 100 nM 1,25D): 104.3 ± 17.7%
- DNA synthesis (% control) (keratinocytes; [3]): 104.4 % control
- DNA synthesis (keratinocytes; [4]): 31267 + 6143 cpm 3H thymidine incorporated

Structure (SMILES): Clc1ccccc1C(c1ccccc1)(c1ccccc1)n1ccnc1 [Clotrimazole]
- blocking of 25D degradation (in words) ([1]; 1 uM, 20 hours (Table 2)): very effective
- blocking of 25D metabolism (in words) ([1]; 2 hours): ineffective
- blocking of 25D metabolism (in words) ([1]; 20 hours): very effective
- % degradation (25D) ([1]; 10 uM compound): 5%
- 25D degradation (%) [1, 5]: 47.4 (42.6-52.2) %
- 25D (% degradation) ([1]; 2 hours): 79%
- 25D (% degradation) ([1]; 20 hours): 5%
- inhibition of 25D metabolism (in words) ([1]; results of Table 1): most potent
- blocking of 1,25D degradation (in words) ([2]; 1 uM, 20 hours (Table 2)): very effective
- blocking of 1,25D metabolism (in words) ([2]; 2 hours): ineffective
- blocking of 1,25D metabolism (in words) ([2]; 20 hours): very effective
- % degradation (1,25D) ([2]; 10 uM compound): 2%
- 1,25D degradation (%) [2, 5]: 29.5 (21.8-37.2) %
- 1,25D (% degradation) ([2]; 2 hours): 77%
- 1,25D (% degradation) ([2]; 20 hours): 2%
- inhibition of 1,25D metabolism (in words) ([2]; results of Table 1): most potent
- DNA synthesis, % of control (100 nM 1,25D + 5 uM ceramide Formula A) (keratinocytes; Table 4, mean + SD, 1440 min): 19.5 + 0.77 % of control
- DNA synthesis, % of control (azole, only 100 nM 1,25D) (keratinocytes; Table 4, 10 uM azole, 100 nM 1,25D, no ceramide, mean + SD, 1440 min): 35.2 + 6.5 % of control
- DNA synthesis (keratinocytes; [6]): 51610 + 6735 cpm 3H thymidine incorporated
- DNA synthesis (% control) (keratinocytes; Tables 4A-4F, 100 nM 1,25D, azole 10 uM, 1440 min): 35.2 % control

Structure (SMILES): CCCCCCCCCCCCCCCCN(CC(O)CO)C(C)=O (stereo not drawn) [Formula F]
- keratinocyte DNA synthesis, % of the corresponding controls (1 uM Econazole) (keratinocytes; 100 nM 1,25D): 84.3 + 1.96%
- keratinocyte DNA synthesis, % of the corresponding controls (10 uM Econazole) (keratinocytes; 100 nM 1,25D): 40.9 + 9.0%
- keratinocyte DNA synthesis, % of the corresponding controls (no azole) (keratinocytes; 100 nM 1,25D): 90.3 ± 21.4%
- DNA synthesis (% control) (keratinocytes; [3]): 90.3 % control
- DNA synthesis (keratinocytes; [4]): 27051 + 7858 cpm 3H thymidine incorporated

Structure (SMILES): CCCCCCCCCCCCCCC(O)CN(CCO)C(=O)CCCCC (stereo not drawn) [Formula D]
- growth inhibition by ceramide analogues (in words) (keratinocytes; 1 uM, absence of azole): significantly inhibitory
- keratinocyte DNA synthesis, % of the corresponding controls (1 uM Econazole) (keratinocytes; 100 nM 1,25D): 97.0 + 19.5%
- keratinocyte DNA synthesis, % of the corresponding controls (10 uM Econazole) (keratinocytes; 100 nM 1,25D): 28.8 + 3.9%
- keratinocyte DNA synthesis, % of the corresponding controls (no azole) (keratinocytes; 100 nM 1,25D): 69.5 ± 11.3%
- DNA synthesis (% control) (keratinocytes; [3]): 69.5 % control
- DNA synthesis (keratinocytes; [4]): 20817 + 3928 cpm 3H thymidine incorporated

Structure (SMILES): CC1=CC(=O)c2ccccc2C1=O [menadione (vitamin K1), menadione]
- % degradation (25D) ([1]; 100 uM compound): 89%
- % degradation (1,25D) ([2]; 100 uM compound): 93%

Structure (SMILES): Nc1nc2ncc(CNc3ccc(C(=O)N[C@@H](CCC(=O)O)C(=O)O)cc3)nc2c(=O)[nH]1 [folic acid]
- % degradation (25D) ([1]; 100 uM compound): 78%
- % degradation (1,25D) ([2]; 100 uM compound): 95%

Structure (SMILES): CCCCCCCCCCCCC/C=C/C(O)C(CO)NC(=O)CCCCC (stereo not drawn) [Formula B]
- keratinocyte DNA synthesis, % of the corresponding controls (1 uM Econazole) (keratinocytes; 100 nM 1,25D): 123.9 + 30.3%
- keratinocyte DNA synthesis, % of the corresponding controls (10 uM Econazole) (keratinocytes; 100 nM 1,25D): 61.7 + 17%
- keratinocyte DNA synthesis, % of the corresponding controls (no azole) (keratinocytes; 100 nM 1,25D): 126.6 ± 17.8%
- DNA synthesis (% control) (keratinocytes; [3]): 126 % control
- DNA synthesis (keratinocytes; [4]): 37927 + 6562 cpm 3H thymidine incorporated

Structure (SMILES): CCCCCCCCCCCCC/C=C/C(O)C(CO)NC(C)=O (stereo not drawn) [Formula A]
- DNA synthesis, % of control (100 nM 1,25D + 5 uM ceramide Formula A) (keratinocytes; Table 4, mean + SD, 1440 min): 81.1 + 16.5 % of control
- keratinocyte DNA synthesis, % of the corresponding controls (1 uM Econazole) (keratinocytes; 100 nM 1,25D): 75.9 + 23.3%
- keratinocyte DNA synthesis, % of the corresponding controls (10 uM Econazole) (keratinocytes; 100 nM 1,25D): 38.2 + 13.9%
- keratinocyte DNA synthesis, % of the corresponding controls (no azole) (keratinocytes; 100 nM 1,25D): 97 + 32%
- DNA synthesis (% control) (keratinocytes; Tables 4A-4F, 100 nM 1,25D, azole 10 uM, ceramide Formula A 5 uM, 1440 min): 74.14 % control
- DNA synthesis (keratinocytes; [6]): 108753 + 24719 cpm 3H thymidine incorporated
- DNA synthesis (% control) (keratinocytes; [3]): 97.7 % control
- DNA synthesis (keratinocytes; [4]): 29272 + 11126 cpm 3H thymidine incorporated

Structure (SMILES): Cc1ncc(C[n+]2csc(CCO)c2C)c(N)n1 [Thiamine]
- % degradation (25D) ([1]; 100 uM compound): 85%
- % degradation (1,25D) ([2]; 100 uM compound): 77%

Structure (SMILES): CCCCCCCCCCCCN(CC(O)CO)C(=O)C(O)CCCCCC (stereo not drawn) [Formula K]
- keratinocyte DNA synthesis, % of the corresponding controls (1 uM Econazole) (keratinocytes; 100 nM 1,25D): 82.9 + 16.9%
- keratinocyte DNA synthesis, % of the corresponding controls (10 uM Econazole) (keratinocytes; 100 nM 1,25D): 38.7 + 14.8%
- keratinocyte DNA synthesis, % of the corresponding controls (no azole) (keratinocytes; 100 nM 1,25D): 100.2 ± 9.6%
- DNA synthesis (% control) (keratinocytes; [3]): 80 % control
- DNA synthesis (keratinocytes; [4]): 23958 + 5660 cpm 3H thymidine incorporated

Structure (SMILES): N[C@@H](Cc1c[nH]c2ccccc12)C(=O)O [L-Tryptophan]
- % degradation (25D) ([1]; 100 uM compound): 83%
- % degradation (1,25D) ([2]; 100 uM compound): 100%
